Source: patent publication US8709406B2, “Prevention and treatment of oxidative stress disorders by gluthathione and phase II detoxification enzymes” (Brassica Foundation for ChemoProtection Research, priority 2001, dated 2014)
Like-named read-outs stand apart in the source and are kept apart here.

Key:
ARPE-19 cells = assay: Oxidant cytotoxicity (MTT viability, median effect analysis) and protection by 24 h sulforaphane pretreatment; format: cell-based, human; details: ARPE-19; for Dm of menadione: Example 3; for Dm of menadione / Dm (median effect concentration) of menadione / m (slope of median effect plot) for menadione: menadione 2 h; for Dm (median effect concentration) of tert-butyl hydroperoxide / m (slope of median effect plot) for tert-butyl hydroperoxide: tert-butyl hydroperoxide 16 h
Experimental: (§1) All experiments were performed in 96-well microliter plates. ARPE-19 and HaCaT cells were seeded at 10,000 cells per well and grown for 24 h before addition of sulforaphane, whereas L1210 cells (5,000 cells/well) were not incubated before sulforaphane treatment. Solutions of sulforaphane (5 mM) in dimethyl sulfoxide were diluted with the cognate culture medium to provide final inducer concentrations of 0.16-5.0 μM. The final DMSO concentrations were 0.1% by volume.
Tert-Butyl hydroperoxide (1 M) and 4-hydroxynonenal (25 mM) were dissolved in DMSO and diluted 1000-fold with serum-free medium before addition of serial dilutions to the microtiter plate wells. The final concentrations of DMSO were therefore less than 0.1% (by vol.). Menadione sodium bisulfite (0.5 M) and SIN-1 (0.5 M) were dissolved and added in PBS. ARPE-19 cells were exposed to menadione for 2 h and to tert-butyl hydroperoxide for 16 h, washed with PBS, and cell viability was determined by the MIT test. ARPE-19 cells were exposed to peroxynitrite for 2 h and 4-hydroxynonenal for 4 h, and the cells were then incubated in serum-free media for 22 and 20 h, respectively, washed with PBS, and cell viability was determined. The additional incubation periods were required for peroxynitrite and 4-hydroxynonenal to evoke maximal cytotoxicity.
(§2) Cell viability was determined by spectroscopic measurement of the reduction of MTT (Carmichael, J., DeGraff, W. G., Gazdar, A. F., Minna, J. D. & Mitchell, J. B. (1987) Cancer Res. 47, 936-942). The culture media were discarded after the designated incubation periods, the cells were washed three times with PBS by use of a microtiter plate washer (Ultrawash Plus, Dynex Technologies, Chantilly, Va.). Each well then received 150 μl of an MTT solution (0.5 mg/ml) in serum-free medium. The plates were incubated for 2 h at 37° C., the MTT solution was discarded, 100 μl of DMSO were added to each well, and the plates were shaken at 200 rpm on an orbital shaker for 5 min. The absorbances of the wells were determined at 555 nm with a microtiter plate reader (Spectra Max Plus, Molecular Devices, Sunnyvale, Calif.). The absorbance of reduced MIT was then compared at each inducer and oxidant concentration to that of untreated control cells that received only the vehicle in which sulforaphane (DMSO) and menadione (DMSO or PBS) were dissolved. In each experiment three identical 96-well plates were used and the means of the absorbance values, the standard deviations of these means, and their coefficients of variation were calculated.
(§3) Dose-effect analyses were performed according to the Median Effect Equation, by use of a computer program (Chou, T. C. & Hayball, M. (1996) CalcuSyn for Windows 3.1 and 95: multiple dose effect analyzer and manual for IBM-PC, Biosoft, Cambridge, U.K). The equation: fa/fu=[D/Dm]^m, where fa is the fraction of cells affected by the oxidant, fu is the fraction unaffected (i.e., 1-fa), D is the dose of oxidant required to produce the effect fa, Dm is the concentration of oxidant required to produce a 50% effect, i.e., when fa=fu, and the slope m is a measure of the sigmoidicity of the dose-response curve, and is therefore a measure of cooperativity. The results are analyzed by plotting log(fa/fu) with respect to log D of the oxidant. The computer program provides the slope (m) of the curves, and the goodness of fit (r^2) to linearity.

HaCaT cells = assay: tert-Butyl hydroperoxide cytotoxicity (MTT, median effect analysis) and protection by sulforaphane; format: cell-based, human; details: tert-butyl hydroperoxide 8 h
Experimental: Mouse L1210 leukemia cells, a gift from Dr. Joseph G. Cory, East Carolina State University, Greenville, N.C., were grown in RPMI 1640 medium supplemented with 10% horse serum. All cultures were incubated in a humidified atmosphere of 5% CO2 at 37° C. Media and sera were obtained from Life Technologies (Rockville, Md.).
as §1, §2, §3

glutathione = details: ARPE-19
Experimental: Cells were lysed by addition of a digitonin solution (0.8 mg/ml digitonin in 2 mM EDTA, pH 7.8), incubated at 37° C. for 20 min, gently shaken for 20 min at 25° C., and centrifuged at 1,500×g for 20 min at 4° C.
Total glutathione (oxidized and reduced) was determined by reduction of 5,5′-dithiobis-2-nitrobenzoic acid (DTNB) in a glutathione reductase-coupled assay in 96-well microliter plates (Ritchie, J. P., Jr., Skowronski, L., Abraham, P. & Leutzinger, Y. (1996) Clin. Chem. 42, 64-70). Briefly, 30 μl of lysates were mixed with 60 μl of cold 2.5% metaphosphoric acid, stored at 4° C. for 10 min, and centrifuged for 20 min at 1,500×g at 4° C. […] After 5 min incubation at 25° C., 50 μl of 0.72 mM NADPH were added to each well, and the initial reaction rates were determined at 412 nm. Calibration curves for pure GSH were included in each assay.

[1] = after sulforaphane 0.63 μM 24 h
[2] = after sulforaphane 1.25 μM 24 h
[3] = after sulforaphane 2.50 μM 24 h
[4] = after sulforaphane 5.00 μM 24 h

C[S+]([O-])CCCCN=C=S (centres unmarked) [Sulforaphane]
m (slope of median effect plot) for 4-hydroxynonenal (ARPE-19 cells; 4-hydroxynonenal 4 h, after sulforaphane 0.63 μM 24 h): 2.51
EC50 (ARPE-19 cells; 4-hydroxynonenal 4 h, after sulforaphane 0.63 μM 24 h, read-out: Dm (median effect concentration) of 4-hydroxynonenal): 14.1 µM
m (slope of median effect plot) for 4-hydroxynonenal (ARPE-19 cells; 4-hydroxynonenal 4 h, after sulforaphane 1.25 μM 24 h): 2.78
EC50 (ARPE-19 cells; 4-hydroxynonenal 4 h, after sulforaphane 1.25 μM 24 h, read-out: Dm (median effect concentration) of 4-hydroxynonenal): 25.8 µM
m (slope of median effect plot) for 4-hydroxynonenal (ARPE-19 cells; 4-hydroxynonenal 4 h, after sulforaphane 2.50 μM 24 h): 2.51
EC50 (ARPE-19 cells; 4-hydroxynonenal 4 h, after sulforaphane 2.50 μM 24 h, read-out: Dm (median effect concentration) of 4-hydroxynonenal): 26.8 µM
Dm of menadione (ARPE-19 cells; after sulforaphane 0.625 μM 24 h): 69.2 µM
Dm of menadione (ARPE-19 cells; after sulforaphane 2.5 μM 24 h): 94.5 µM
degree of protection against different oxidants (ARPE-19 cells; comparable concentrations of sulforaphane): 2- to 3 fold
Dm (median effect concentration) of menadione (ARPE-19 cells; [1]): 98.6 µM
m (slope of median effect plot) for menadione (ARPE-19 cells; [1]): 3.69
Dm (median effect concentration) of menadione (ARPE-19 cells; [2]): 110 µM
m (slope of median effect plot) for menadione (ARPE-19 cells; [2]): 3.49
Dm (median effect concentration) of menadione (ARPE-19 cells; after sulforaphane 1.25 μM 24 h, listed as sulforaphane): 109.9 µM
Dm (median effect concentration) of menadione (ARPE-19 cells; [3]): 123 µM
m (slope of median effect plot) for menadione (ARPE-19 cells; [3]): 3.58
Dm (median effect concentration) of menadione (ARPE-19 cells; after sulforaphane 2.50 μM 24 h, listed as sulforaphane): 122.9 µM
Dm (median effect concentration) of menadione (ARPE-19 cells; [4]): 134 µM
m (slope of median effect plot) for menadione (ARPE-19 cells; [4]): 3.12
Dm (median effect concentration) of menadione (ARPE-19 cells; after sulforaphane 5.00 μM 24 h, listed as sulforaphane): 134.2 µM
m (slope of median effect plot) for peroxynitrite (ARPE-19 cells; peroxynitrite (from SIN-1) 2 h, after sulforaphane 0.63 μM 24 h): 6.30
EC50 (ARPE-19 cells; peroxynitrite (from SIN-1) 2 h, after sulforaphane 0.63 μM 24 h, read-out: Dm (median effect concentration) of peroxynitrite): 2780 µM
m (slope of median effect plot) for peroxynitrite (ARPE-19 cells; peroxynitrite (from SIN-1) 2 h, after sulforaphane 1.25 μM 24 h): 6.19
EC50 (ARPE-19 cells; peroxynitrite (from SIN-1) 2 h, after sulforaphane 1.25 μM 24 h, read-out: Dm (median effect concentration) of peroxynitrite): 2820 µM
m (slope of median effect plot) for peroxynitrite (ARPE-19 cells; peroxynitrite (from SIN-1) 2 h, after sulforaphane 2.50 μM 24 h): 6.62
EC50 (ARPE-19 cells; peroxynitrite (from SIN-1) 2 h, after sulforaphane 2.50 μM 24 h, read-out: Dm (median effect concentration) of peroxynitrite): 2890 µM
time for which protection against menadione toxicity is maintained or exceeded after 24-h induction (ARPE-19 cells; sulforaphane 0.625 and 2.5 μM 24 h, then serum-free culture): at least 3 days
Dm (median effect concentration) of tert-butyl hydroperoxide (ARPE-19 cells; [1]): 140 µM
m (slope of median effect plot) for tert-butyl hydroperoxide (ARPE-19 cells; [1]): 2.17
Dm (median effect concentration) of tert-butyl hydroperoxide (ARPE-19 cells; [2]): 163 µM
m (slope of median effect plot) for tert-butyl hydroperoxide (ARPE-19 cells; [2]): 1.79
Dm (median effect concentration) of tert-butyl hydroperoxide (ARPE-19 cells; [3]): 165 µM
m (slope of median effect plot) for tert-butyl hydroperoxide (ARPE-19 cells; [3]): 1.26
Dm (median effect concentration) of tert-butyl hydroperoxide (HaCaT cells; [1]): 113 µM
m (slope of median effect plot) for tert-butyl hydroperoxide (HaCaT cells; [1]): 0.894
Dm (median effect concentration) of tert-butyl hydroperoxide (HaCaT cells; [2]): 166 µM
m (slope of median effect plot) for tert-butyl hydroperoxide (HaCaT cells; [2]): 0.921
Dm (median effect concentration) of tert-butyl hydroperoxide (HaCaT cells; [3]): 200 µM
m (slope of median effect plot) for tert-butyl hydroperoxide (HaCaT cells; [3]): 0.768
concentrations of GSH in cytosols (glutathione; sulforaphane 0-5.0 μM 24 h): rose with exposure to increasing concentrations of sulforaphane
increase of GSH levels (glutathione; sulforaphane 2.5 μM 24 h): about 50%
